Where two headings read alike, the source gives them in different places.

The target of one assay is HPK1 (Homo sapiens, UniProt Q92918). As to the kind of experiment: HPK1 biochemical assay (ADP-GLO Kinase Assay). The essentials: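 HPK1 (0.6 ng/μL final) activity was followed with MBP substrate and 10 μM ATP in Tris pH 7.5/MgCl2/BSA/DTT buffer, measured by ADP-Glo luminescence. Compounds were tested as 3-fold dilutions from 10 μM. IC50 came from a three-parameter logistic fit, with inhibition normalised to high/low controls.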

In another assay the target is T1, JAK3 (Homo sapiens, UniProt P52333).
T1 construct: purchased Thermo fisher PV3855
Nature of the assay: JAK3 biochemical assay (ADP-GLO Kinase Assay). The settings on record: for JAKs/HPK1 IC50 Ratio, B* / JAKs/HPK1 IC50 Ratio, N*: ratio of JAK3 IC50 to HPK1 IC50; for JAKs/HPK1 IC50 Ratio, B*: first testing facility; for JAKs/HPK1 IC50 Ratio, N*: second testing facility. In short, it runs like this: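 Luminescent ADP-Glo readout after a 60 min, 25 °C reaction of JAK3 (0.78 ng) on Poly(E4Y1) (0.2 μg/μL) at 4 μM ATP, Tris pH 7.5 buffer with MgCl2, BSA and DTT. Compounds tested 10 μM down to 0.508 nM in 3-fold steps; % inhibition normalised to DMSO and reference-compound controls, IC50 from three-parameter fit.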

[1] abbreviates: B*: testing performed in a first testing facility, read-out: HPK1 IC50 (nM) Relative, B*.
Setting [2] is: N*: testing performed in a second testing facility, read-out: HPK1 IC50 (nM) Relative, N*.
Setting [3] is: B*: testing performed in a first testing facility, read-out: JAK3 IC50 (nM) Relative, B*.
[4] abbreviates: N*: testing performed in a second testing facility, read-out: JAK3 IC50 (nM) Relative, N*.

T1 sequence (P52333 781-1124 limits assumed): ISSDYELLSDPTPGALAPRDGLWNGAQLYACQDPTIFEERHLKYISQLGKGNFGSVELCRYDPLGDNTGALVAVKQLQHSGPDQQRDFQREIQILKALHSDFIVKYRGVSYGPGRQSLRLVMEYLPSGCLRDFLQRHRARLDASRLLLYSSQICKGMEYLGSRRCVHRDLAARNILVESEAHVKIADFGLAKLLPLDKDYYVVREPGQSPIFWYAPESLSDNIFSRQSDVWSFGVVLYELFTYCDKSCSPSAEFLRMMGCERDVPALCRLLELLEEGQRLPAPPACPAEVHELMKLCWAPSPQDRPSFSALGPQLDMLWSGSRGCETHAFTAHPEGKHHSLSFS
HPK1, sequence (Q92918 whole entry): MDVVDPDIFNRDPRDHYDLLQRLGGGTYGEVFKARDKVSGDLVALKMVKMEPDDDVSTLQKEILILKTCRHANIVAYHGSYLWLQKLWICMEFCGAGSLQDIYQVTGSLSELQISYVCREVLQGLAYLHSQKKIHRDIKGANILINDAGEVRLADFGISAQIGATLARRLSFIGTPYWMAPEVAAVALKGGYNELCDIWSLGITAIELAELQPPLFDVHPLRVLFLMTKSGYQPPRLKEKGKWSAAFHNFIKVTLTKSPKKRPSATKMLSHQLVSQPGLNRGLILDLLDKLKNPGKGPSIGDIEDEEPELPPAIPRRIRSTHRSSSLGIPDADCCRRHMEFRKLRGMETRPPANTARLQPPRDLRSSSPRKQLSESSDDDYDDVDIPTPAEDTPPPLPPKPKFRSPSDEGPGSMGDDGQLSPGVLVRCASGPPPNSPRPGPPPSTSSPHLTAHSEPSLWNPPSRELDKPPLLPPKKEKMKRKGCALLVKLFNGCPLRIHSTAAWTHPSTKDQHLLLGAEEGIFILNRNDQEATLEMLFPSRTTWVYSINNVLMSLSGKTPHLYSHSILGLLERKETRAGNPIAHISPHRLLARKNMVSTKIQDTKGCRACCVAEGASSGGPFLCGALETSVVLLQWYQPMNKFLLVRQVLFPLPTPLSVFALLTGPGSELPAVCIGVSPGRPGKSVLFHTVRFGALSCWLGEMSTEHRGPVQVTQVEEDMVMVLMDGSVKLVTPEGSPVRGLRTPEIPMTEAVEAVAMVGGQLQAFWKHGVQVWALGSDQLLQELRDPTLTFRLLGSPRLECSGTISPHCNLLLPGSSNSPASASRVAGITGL

Consider `COc1cc2c(cc1Nc1ncc(Cl)c(-n3cc(P(C)(C)=O)c4ccccc43)n1)CN(C)CC2` [Example 1, (1-(5-Chloro-2-((6-methoxy-2-methyl-1,2,3,4-tetrahydroisoquinolin-7-yl)amino)pyrimidin-4-yl)-1H-indol-3-yl)dimethylphosphine oxide], for which the IC50 at HPK1 (setting [1]) is at most 100 nM; on HPK1 (setting [2]) it was at most 100 nM; at JAK3 (setting [3]), over 1000 nM; at JAK3 (setting [4]), over 1000 nM. The “JAKs/HPK1 IC50 Ratio, B*” value on JAK3 is reported as 285. For the same compound, the “JAKs/HPK1 IC50 Ratio, N*” value on JAK3 is given as over 558.
In the case of `COc1nc2c(cc1Nc1ncc(Cl)c(N3CCc4ccccc43)n1)CN(C)CC2` [Example 19, N-(5-chloro-4-(indolin-1-yl)pyrimidin-2-yl)-2-methoxy-6-methyl-5,6,7,8-tetrahydro-1,6-naphthyridin-3-amine], the IC50 on HPK1 (setting [1]) is at most 100 nM; at HPK1 (setting [2]) it was at most 100 nM; on JAK3 (setting [3]) it was 500 to 1000 nM; at JAK3 (setting [4]), 100 to 500 nM.
Take `COc1cc2c(cc1Nc1ncc(Cl)c(N3CCc4cc(F)ccc43)n1)CN(C)CC2` [Example 20, N-(5-chloro-4-(5-fluoroindolin-1-yl)pyrimidin-2-yl)-6-methoxy-2-methyl-1,2,3,4-tetrahydroisoquinolin-7-amine]: the concentration for half-maximal inhibition (IC50) is at most 100 nM on HPK1 (setting [1]) and 100 to 500 nM at JAK3 (setting [3]). At JAK3, the “JAKs/HPK1 IC50 Ratio, B*” value was determined as 88.
The corresponding values for `COc1cc2c(cc1Nc1ncc(Cl)c(N3CCc4ccc(F)cc43)n1)CN(C)CC2` [Example 21, N-(5-chloro-4-(6-fluoroindolin-1-yl)pyrimidin-2-yl)-6-methoxy-2-methyl-1,2,3,4-tetrahydroisoquinolin-7-amine] are at most 100 nM, over 1000 nM and 280.
As for `COc1cc2c(cc1Nc1ncc(Cl)c(N3CCc4ccccc43)n1)CN(C(C)C)CC2` [Example 22, N-(5-chloro-4-(indolin-1-yl)pyrimidin-2-yl)-2-isopropyl-6-methoxy-1,2,3,4-tetrahydroisoquinolin-7-amine], the 50% inhibitory concentration (IC50) was at most 100 nM on HPK1 (setting [1]) and over 1000 nM at JAK3 (setting [3]). For the same compound, the “JAKs/HPK1 IC50 Ratio, B*” value at JAK3 was found to be 223.
As for `COc1cc2c(cc1Nc1ncc(Cl)c(N3CCc4ccccc43)n1)CNCC2` [Example 23, N-(5-chloro-4-(indolin-1-yl)pyrimidin-2-yl)-6-methoxy-1,2,3,4-tetrahydroisoquinolin-7-amine], the results for the IC50 on HPK1 (setting [1]) and on JAK3 (setting [3]) were at most 100 nM and 100 to 500 nM, respectively. Also, the “JAKs/HPK1 IC50 Ratio, B*” value on JAK3 is given as 59.
In the case of `COc1cc2c(cc1Nc1ncc(Cl)c(-n3ncc4ccccc43)n1)CN(C)CC2` [Example 24, N-(5-Chloro-4-(1H-indazol-1-yl)pyrimidin-2-yl)-6-methoxy-2-methyl-1,2,3,4-tetrahydroisoquinolin-7-amine], the IC50 was at most 100 nM on HPK1 (setting [1]) and over 1000 nM at JAK3 (setting [3]). For the same compound, the “JAKs/HPK1 IC50 Ratio, B*” value on JAK3 turned out to be 79.
Turning to `COc1cc2c(cc1Nc1ncc(Cl)c(N3CC(C)(C)c4ccccc43)n1)CN(C)CC2` [Example 25, N-(5-Chloro-4-(3,3-dimethylindolin-1-yl)pyrimidin-2-yl)-6-methoxy-2-methyl-1,2,3,4-tetrahydroisoquinolin-7-amine], the IC50 is at most 100 nM at HPK1 (setting [1]) and 100 to 500 nM at JAK3 (setting [3]). Besides, on JAK3, the “JAKs/HPK1 IC50 Ratio, B*” value amounted to 218.
On to `COc1nc2c(cc1Nc1ncc(Cl)c(N3CCc4ncccc43)n1)CN(C)CC2` [Example 29, N-(5-Chloro-4-(2,3-dihydro-1H-pyrrolo[3,2-b]pyridin-1-yl)pyrimidin-2-yl)-2-methoxy-6-methyl-5,6,7,8-tetrahydro-1,6-naphthyridin-3-amine], for which the IC50 on HPK1 (setting [1]) was at most 100 nM; at HPK1 (setting [2]), at most 100 nM; on JAK3 (setting [3]), 500 to 1000 nM; at JAK3 (setting [4]) it was 100 to 500 nM. Also, the “JAKs/HPK1 IC50 Ratio, B*” value at JAK3 was found to be 223. Further, the “JAKs/HPK1 IC50 Ratio, N*” value at JAK3 is 286.
Take `COc1cc2c(cc1Nc1ncc(Cl)c(N3CC(C(=O)O)c4ccccc43)n1)CN(C)CC2` (stereo not drawn) [Example 32, 1-(5-Chloro-2-((6-methoxy-2-methyl-1,2,3,4-tetrahydroisoquinolin-7-yl)amino)pyrimidin-4-yl)indoline-3-carboxylic acid]: the IC50 on HPK1 (setting [1]) and at JAK3 (setting [3]) was at most 100 nM throughout. For the same compound, on JAK3, the “JAKs/HPK1 IC50 Ratio, B*” value is given as 90.
Regarding `COc1cc2c(cc1Nc1ncc(Cl)c(N3CC(C(N)=O)c4ccccc43)n1)CN(C)CC2` (stereo not drawn) [Example 33, 1-(5-Chloro-2-((6-methoxy-2-methyl-1,2,3,4-tetrahydroisoquinolin-7-yl)amino)pyrimidin-4-yl)indoline-3-carboxamide], the IC50 at HPK1 (setting [1]) and on JAK3 (setting [3]) was at most 100 nM in each case. Besides, the “JAKs/HPK1 IC50 Ratio, B*” value at JAK3 was found to be 140.
In the case of `COc1cc2c(cc1Nc1ncc(Cl)c(-n3cc(C(N)=O)c4ccccc43)n1)CN(C)CC2` [Example 34], the IC50 on HPK1 (setting [1]) is at most 100 nM; on JAK3 (setting [3]), 500 to 1000 nM. In addition, the “JAKs/HPK1 IC50 Ratio, B*” value on JAK3 came out at 101.
On the same counts, the results for `COc1cc2c(cc1Nc1ncc(Cl)c(-n3cc(C(=O)O)c4ccccc43)n1)CN(C)CC2` [Example 35] are at most 100 nM, 100 to 500 nM and 78.
As to `COc1cc2c(cc1Nc1ncc3ccn(-c4ccccc4)c3n1)CN(C)CC2` [Example 36, 6-methoxy-2-methyl-N-(7-phenyl-7H-pyrrolo[2,3-d]pyrimidin-2-yl)-1,2,3,4-tetrahydroisoquinolin-7-amine], the IC50 was at most 100 nM on HPK1 (setting [1]), at most 100 nM at HPK1 (setting [2]) and over 1000 nM at JAK3 (setting [4]). At JAK3, the “JAKs/HPK1 IC50 Ratio, N*” value is 287.
For the compound `COc1cc2c(cc1Nc1ncc3ccn(-c4ccccn4)c3n1)CN(C)CC2` [Example 37, 6-Methoxy-2-methyl-N-(7-(pyridin-2-yl)-7H-pyrrolo[2,3-d]pyrimidin-2-yl)-1,2,3,4-tetrahydroisoquinolin-7-amine], the 50% inhibitory concentration (IC50) at HPK1 (setting [1]) was at most 100 nM; on HPK1 (setting [2]), at most 100 nM; on JAK3 (setting [4]) it was over 1000 nM. For the same compound, at JAK3, the “JAKs/HPK1 IC50 Ratio, N*” value was 608.
